Data as given in PMC6825270 (Proceedings of the National Academy of Sciences of the …, 2019).

How the values were obtained:
[1] = target: mouse MOPr (mMOPr) (Mus musculus, UniProt P42866); assay: GGIRK activation in AtT20 cells expressing mMOPr, perforated patch; format: cell-based
[2] = target: MOPr (Mus musculus, UniProt P42866); format: cell-based; conditions: GRK2-positive cells, saturating concentrations
[3] = target: human MOPr (hMOPr) (Homo sapiens, UniProt P35372); assay: Inhibition of forskolin-stimulated cAMP formation in hMOPr HEK cells; format: cell-based; conditions: 10 µM
[4] = target: human μ-opioid receptor (hMOPr) (human) (UniProt P35372); assay: radioligand binding
[5] = target: human δ-opioid receptor (hDOPr) (human) (UniProt P41143); assay: radioligand binding
[6] = target: human κ-opioid receptor (hKOPr) (human) (UniProt P41145); assay: radioligand binding

Chain of human MOPr (hMOPr) (P35372 whole entry): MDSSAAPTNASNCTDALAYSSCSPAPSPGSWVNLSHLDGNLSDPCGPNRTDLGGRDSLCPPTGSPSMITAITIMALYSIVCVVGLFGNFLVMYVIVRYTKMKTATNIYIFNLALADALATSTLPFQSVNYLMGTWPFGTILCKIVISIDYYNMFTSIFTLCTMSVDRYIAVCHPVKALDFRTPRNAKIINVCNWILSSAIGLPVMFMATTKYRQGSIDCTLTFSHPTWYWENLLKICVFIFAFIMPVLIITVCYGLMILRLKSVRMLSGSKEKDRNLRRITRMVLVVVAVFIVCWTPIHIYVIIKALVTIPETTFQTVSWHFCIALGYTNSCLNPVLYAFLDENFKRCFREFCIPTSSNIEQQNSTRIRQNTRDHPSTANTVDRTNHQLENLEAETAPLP

Row | Molecule | Inhibition of cAMP formation / MOPr activity, in words [3] | Ki [4] | also measured
1 | COc1ccsc1CNCC[C@@]1(c2ccccn2)CCOC2(CCCC2)C1 [oliceridine] | – | – | GGIRK activation in AtT20 cells, in words [1]: significantly less efficaciously than either morphine or bilorphin; MOPr internalization with overexpressed GRK2-YFP and β-arrestin 2-HA, in words [2]: clear internalization signals
2 | H-FVvf-NH2 [1g] | generally inactive | – | –
3 | H-FVvf-OH [1c] | generally inactive | – | –
4 | H-fVvF-NH2 [1f] | generally inactive | – | –
5 | H-fVvF-OH [1b] | generally inactive | – | –
6 | H-fvVF-OH [1d] | generally inactive | – | –
7 | bilaid A (FvVf-OH) (peptide) | – | 3100 nM | –
8 | bilaid C (YvVf-OH) (peptide) | – | 210 nM | –
9 | bilorphin ([Dmt]vVf-NH2) (peptide) | – | – | Ki [5]: 190 nM; Ki [6]: 770 nM
10 | FVVF (D-Val at 2, D-Phe at 4; C-terminal amide) [C-terminally amidated bilaid A (1e)] | – | 750 nM | –
